{"source": "patent US20160158231A1", "about": "“PYRIMIDINE HYDROXY AMIDE COMPOUNDS FOR TREATING PERIPHERAL NEUROPATHY” (VIB VZW, priority 2014, published 2016)", "key": {"[1]": {"assay": "Rat pharmacokinetic studies", "format": "in vivo", "conditions": "plasma, male SD rats, IV 1 mg/kg", "method": "Male SD rats were fasted overnight. Compounds A and B were dissolved in dimethyl acetamide at 10 times the final concentration, then Solutol HS 15 (BASF) was added to a final concentration of 10%. Finally 80% saline was added and vortexed to achieve a clear solution. For the IV dosing three animals were injected via the foot dorsal vein with 1 mg/kg compound. For the PO dosing 5 mg/kg of compound was delivered by oral gavage. Blood was collected via the tail vein into K2EDTA tubes at 5 minutes, 15 minutes, 30 minutes, 1 hour, 2 hours, 4 hours, 8 hours and 24 hours after dosing. The blood was centrifuged at 2000 g for 5 minutes at 4° C. to obtain plasma. The plasma was extracted with acetonitrile and the level of compound was analyzed by LC/MS/MS. The level of compound in plasma was calculated from a standard curve in rat plasma. The IV clearance and area under the curve were calculated using WinNonLin software. The dose adjusted area under the curve for the IV and oral dosing were used to calculate the oral bioavailability."}, "[2]": {"test_system": "acetylated histone 3 (H3) in Neuro2a cells", "assay": "Acetylation status of histone 3 in Neuro2a cells: selectivity", "format": "cell-based, mouse", "conditions": "1 μM; for acetylation of H3 on Western blot: ratio acetylated H3/H4 normalized to DMSO"}, "[3]": {"test_system": "vincristine-induced neuropathic pain model in rats", "assay": "Vincristine-induced neuropathic pain model in rats (Von Frey test)", "format": "in vivo, rat", "method": "Neuropathic pain is induced by injecting 5 ml/kg Vincristine (50 μg/kg) administered daily IP for a period of 12 days. The development of neuropathic pain is confirmed by measuring of mechanical allodynia (Von Frey test) on study day 13.\nAllodynic response to tactile stimulation is assessed using the Von Frey apparatus (Touch Test®).\nThe rat will be placed in an enclosure and positioned on a metal mesh surface, but allowed to move freely. The rats' cabins are covered with red cellophane to diminish environmental disturbances. The test begins after a cessation of exploratory behavior. The set of Von Frey monofilaments provide an approximate logarithmic scale of actual force and a linear scale of perceived intensity.\nThe operating principle: when the tip of a fiber of given length and diameter is pressed against the skin at right angles, the force of application increases as long as the researcher continues to advance the probe until the fiber bends. After the fiber bends, the probe continues to advance, causing the fiber to bend more, but without additional force being applied. […] The Touch Test™ Sensory Evaluator can be used on the plantar surfaces of the rat's foot. The animal indicates sensation by pulling back its paw. The minimal force needed to elevate the withdrawal reflex is considered/designated as the value of reference. In order to achieve paw withdrawal, the pressure applied is sometimes greater than 60 g, often requiring the researcher to apply enough pressure with the Von Frey filament to actually lift the paw of the naive animal. Decreases in force needed to induce withdrawal are indicative of allodynia, as the force applied is a non-painful stimulus under normal conditions."}, "[4]": {"assay": "Mouse pharmacokinetic studies (plasma and brain)", "format": "in vivo", "conditions": "male, C57BL/6, mouse, iv, 1 mg/kg, read-out: Mouse brain to plasma ratio", "method": "Male C57BL/6 mice were fasted overnight. Compounds A and B were dissolved in dimethyl acetamide at 10 times the final concentration, then Solutol HS 15 (BASF) was added to a final concentration of 10%. Finally 80% saline was added and vortexed to achieve a clear solution. Fifteen animals were injected via the tail vein with 1 mg/kg compound. Blood was collected by retro-orbital bleed at 5 minutes, 15 minutes, 30 minutes, 1 hour, 2 hours, 4 hours, 8 hours and 24 hours after dosing. At 5 minutes, 30 minutes, 1 hour and 4 hours after dosing three animals per time point were sacrificed and brains were removed. The blood was centrifuged at 2000 g for 5 minutes at 4° C. to obtain plasma. Brain samples were homogenized in PBS. The plasma and brain homogenate were extracted with acetonitrile and the level of compound was analyzed by LC/MS/MS. The level of compound in plasma was calculated from a standard curve in rat plasma and the level in brain was calculated from a standard curve in brain homogenate. The area under the curve in plasma and brain were calculated using WinNonLin software. The brain to plasma ratio was determined using the area under the curve values for the two compartments."}, "HSPB1^S135F DRG neurons [5]": {"test_system": "HSPB1^S135F DRG neurons", "assay": "Axonal transport of mitochondria in DRG neurons cultured from HSPB1 S135F mice", "format": "cell-based, mouse", "conditions": "2.5 μM; for amount of stationary mitochondria / number of moving mitochondria in the neurites / number of total mitochondria in the neurites: vs DMSO", "description": "Both compounds were able to increase the number of moving mitochondria in the neurites of HSPB1^S135F DRG neurons (FIGS. 4A and 4D)."}, "[6]": {"test_system": "HDAC6 (acetylated α-tubulin) in Neuro2a cells", "assay": "Acetylated α-tubulin in Neuro2a cells (Western blot, staining): potency to inhibit HDAC6", "conditions": "for acetylated α-tubulin levels on Western blot / acetylated α-tubulin, staining of treated cells: 1 μM; for acetylated α-tubulin levels on Western blot: compared to DMSO; for acetylated α-tubulin, staining of treated cells: immunofluorescent staining; for relative potency to increase acetylated α-tubulin (dose-response): Western blot, different concentrations"}, "[7]": {"test_system": "taxol-induced neuropathic pain model in rats", "assay": "Taxol-induced neuropathic pain model in rats (Von Frey test)", "format": "in vivo, rat", "method": "A study was conducted to extend the previous findings in the vincristine model to a different model of chemotherapy-induced neuropathy, the taxol-induced neuropathic pain model in rats.\nNeuropathic pain is induced by a 0.5 ml/kg injection of taxol (2 mg/kg) administered IP on days 0-12. The development of neuropathic pain is confirmed by measuring mechanical allodynia (Von Frey test) on study day 13 as described above.\nPain was assessed using Von-Frey (VF) test for tactile allodynia on study days 13-15. The Rotarod Test was used to assess motor/coordination function.\nNeuropathic pain was induced by a 0.5 ml/kg injection of taxol (2 mg/kg) administered IP on study days 0-12. The development of neuropathic pain was confirmed by measuring mechanical allodynia (Von Frey test) on study day 13."}, "[8]": {"test_system": "C57B16/J mice, vincristine-induced sensory neuropathy", "format": "in vivo, mouse", "method": "To study whether treatment with vincristine in vivo could induce a peripheral neuropathy, C57B16/J mice were injected intraperitoneally with vincristine on a daily basis. First, the animals were injected with different doses of vincristine. As sensory rather than motor problems are more pronounced in vincristine associated neuropathy patients, the Sensory Nerve Action Potentials (SNAPs) of the dorsal caudal tail nerve were first evaluated (FIG. 6A).\nThese animals were co-treated with vincristine and a selective HDAC6-inhibitor (Tubastatin A) to study the therapeutic potential of HDAC6-inhibition. […] A motor phenotype in our mice after vincristine treatment was not detected (results not shown)."}, "mutant HSPB1^S135F mice [9]": {"test_system": "mutant HSPB1^S135F mice", "assay": "Motor and sensory deficits of mutant HSPB1 S135F mice (CMT2 model)", "format": "in vivo, mouse", "conditions": "3 mg/kg, daily IP injection, symptomatic animals", "description": "From the age of 6 months on, mutant HSPB1^S135F mice display motor and sensory deficits (d'Ydewalle et al., 2011). […] A positive trend for all the compounds tested was observed."}, "HSPB1^S135F DRG neurons [10]": {"test_system": "HSPB1^S135F DRG neurons", "conditions": "d'Ydewalle et al., 2011; cited from earlier work"}, "mutant HSPB1^S135F mice [11]": {"test_system": "mutant HSPB1^S135F mice", "conditions": "d'Ydewalle et al., 2011; cited from earlier work"}}, "note": "Entries after “also recorded” stand apart in the source; their conditions may differ."}
{"smiles": "O=C(NO)c1cnc(NC2(c3ccccc3)CC2)nc1", "note": "[Compound A, N-hydroxy-2-((1-phenylcyclopropyl)amino)pyrimidine-5-carboxamide]", "values": [{"measurement": "clearance", "setting": "[1]", "result": 100, "unit": "mL/min/kg"}, {"measurement": "acetylation of H3 on Western blot", "setting": "[2]", "result": "do not change"}, {"measurement": "increasing the withdrawal force (Von Frey)", "setting": "[3]; 3 mg/kg PO b.i.d.", "result": "not active"}, {"measurement": "animals waking ability", "setting": "[3]; 3 mg/kg and 10 mg/kg PO starting from study day 7", "result": "trend of improvement"}, {"measurement": "Von Frey withdrawal force", "setting": "[3]; 10 mg/kg PO b.i.d., study day 13, vehicle 9.45±0.66 g, ns", "result": "11.00 ± 1.07", "unit": "g"}, {"measurement": "Von Frey withdrawal force", "setting": "[3]; 10 mg/kg PO b.i.d., study day 15, vehicle 14.50±1.51 g, p<0.05", "result": "33.85 ± 6.96", "unit": "g"}, {"measurement": "Von Frey force", "setting": "[3]; 10 mg/kg, study days 14-15", "result": "significantly decreased"}, {"measurement": "Kp", "setting": "[4]", "result": 1.23}, {"measurement": "levels of acetylated α-tubulin in the neurites (staining)", "setting": "HSPB1^S135F DRG neurons [5]", "result": "increased"}, {"measurement": "amount of stationary mitochondria", "setting": "HSPB1^S135F DRG neurons [5]", "result": "remains unchanged"}, {"measurement": "number of moving mitochondria in the neurites", "setting": "HSPB1^S135F DRG neurons [5]", "result": "increase"}, {"measurement": "number of total mitochondria in the neurites", "setting": "HSPB1^S135F DRG neurons [5]", "result": "increase"}, {"measurement": "acetylated α-tubulin levels on Western blot", "setting": "[6]", "result": "significant increase"}, {"measurement": "acetylated α-tubulin, staining of treated cells", "setting": "[6]", "result": "increased levels"}, {"measurement": "Von Frey withdrawal force", "setting": "[7]; 3 mg/kg PO b.i.d., 2 hours post dosing, study day 15, vehicle 13.21±1.49 g", "result": "53.20 ± 2.78", "unit": "g"}, {"measurement": "Von Frey withdrawal force", "setting": "[7]; 10 mg/kg PO b.i.d., study day 13 post dosing, vehicle 15.33±2.13 g", "result": "53.11 ± 4.77", "unit": "g"}, {"measurement": "reversing pain (conclusion)", "setting": "[7]; doses of 3 mg/kg and 10 mg/kg", "result": "active in reversing pain"}, {"measurement": "sensory neuropathy induced by vincristine (SNAP)", "setting": "[8]; 25 mg/kg/day intraperitoneal, one week, co-treatment with vincristine", "result": "seems to reduce the sensory neuropathy"}]}
{"smiles": "CN1CCc2c(c3ccccc3n2Cc2ccc(C(=O)NO)cc2)C1", "note": "[Tubastatin A]", "values": [{"measurement": "amplitude of the compound muscle action potential (CMAP)", "setting": "mutant HSPB1^S135F mice [9]", "result": "can restore"}, {"measurement": "rescue of the axonal transport defect of mitochondria", "setting": "HSPB1^S135F DRG neurons [10]", "result": "could be rescued"}, {"measurement": "restoration of motor and sensory defects", "setting": "mutant HSPB1^S135F mice [11]", "result": "can be restored"}]}
{"smiles": "NCC1(CC(=O)O)CCCCC1", "note": "[Gabapentin, reference compound]", "values": [{"measurement": "Von Frey withdrawal force", "setting": "[3]; 150 mg/kg IP, study day 15, vehicle 14.50±1.51 g", "result": "43.95 ± 5.00", "unit": "g"}, {"measurement": "Von Frey withdrawal force", "setting": "[7]; 150 mg/kg IP, 2 hours post dosing, study day 15, vehicle 13.21±1.49 g", "result": "54.90 ± 3.63", "unit": "g"}]}
{"smiles": "CC(/C=C/C(=O)NO)=C\\[C@@H](C)C(=O)c1ccc(N(C)C)cc1", "note": "[TSA, Trichostatin A, reference compound]", "values": [{"measurement": "acetylated H3 in nuclei, staining of treated cells", "setting": "[2]; immunofluorescent staining", "result": "more acetylated H3"}, {"measurement": "acetylation of H3 on Western blot", "setting": "[2]", "result": "increases"}, {"measurement": "acetylated α-tubulin, staining of treated cells", "setting": "[6]", "result": "increased levels"}, {"measurement": "relative potency to increase acetylated α-tubulin (dose-response)", "setting": "[6]", "result": "more potent"}, {"measurement": "restoration of motor and sensory defects", "setting": "mutant HSPB1^S135F mice [11]", "result": "can be restored"}]}
{"smiles": "O=C(NO)c1cnc(NC2(c3cccc(F)c3)CCCCC2)nc1", "note": "[Compound B, 2-((1-(3-fluorophenyl)cyclohexyl)amino)-N-hydroxypyrimidine-5-carboxamide]", "values": [{"measurement": "clearance", "setting": "[1]", "result": 38.3, "unit": "mL/min/kg"}, {"measurement": "acetylation of H3 on Western blot", "setting": "[2]", "result": "do not change"}, {"measurement": "Kp", "setting": "[4]", "result": 1.28}, {"measurement": "levels of acetylated α-tubulin in the neurites (staining)", "setting": "HSPB1^S135F DRG neurons [5]", "result": "increased"}, {"measurement": "amount of stationary mitochondria", "setting": "HSPB1^S135F DRG neurons [5]", "result": "remains unchanged"}, {"measurement": "number of moving mitochondria in the neurites", "setting": "HSPB1^S135F DRG neurons [5]", "result": "increase"}, {"measurement": "number of total mitochondria in the neurites", "setting": "HSPB1^S135F DRG neurons [5]", "result": "increase"}, {"measurement": "acetylated α-tubulin levels on Western blot", "setting": "[6]", "result": "significant increase"}, {"measurement": "acetylated α-tubulin, staining of treated cells", "setting": "[6]", "result": "increased levels"}, {"measurement": "relative potency to increase acetylated α-tubulin (dose-response)", "setting": "[6]", "result": "more potent"}, {"measurement": "amplitude of the compound muscle action potential (CMAP)", "setting": "mutant HSPB1^S135F mice [9]", "result": "statistical significant rescue; also recorded: can restore"}]}
{"smiles": "CC[C@]1(O)C[C@H]2CN(CCc3c([nH]c4ccccc34)[C@@](C(=O)OC)(c3cc4c(cc3OC)N(C=O)[C@H]3[C@@](O)(C(=O)OC)[C@H](OC(C)=O)[C@]5(CC)C=CCN6CC[C@]43[C@@H]65)C2)C1", "note": "[vincristine]", "values": [{"measurement": "reduction in SNAP amplitude compared to vehicle treated mice", "setting": "[8]; C57B16/J, mouse, in vivo, ip, 7 days", "result": 35.4, "unit": "%"}, {"measurement": "motor phenotype", "setting": "[8]; mouse, in vivo", "result": "not detected"}, {"measurement": "SNAP latencies", "setting": "[8]; mouse, in vivo, ip", "result": "unaffected"}]}
